{
  "source": "patent US20240228501A1",
  "about": "“IMIDAZOLE-CONTAINING CONDENSED RING DERIVATIVE, PREPARATION METHOD THEREFOR, AND APPLICATION THEREOF IN MEDICINE” (CHANGCHUN GENESCIENCE PHARMACEUTICAL CO., LTD., priority 2021, published 2024)",
  "key": {"[1]": {"assay": "Pharmacokinetic test in rats (gavage 3 mg/kg, intravenous 1 mg/kg)", "format": "in vivo", "conditions": "rat, plasma, SD rats; for AUC: read-out: Curve area AUC; for half-life: read-out: Half life T1/2 (converted)", "procedure": "Test Example 2: Pharmacokinetic Test of Compounds of the present invention in Rats\n(§1) To study in vivo pharmacokinetic behaviors of the compounds of the present invention in rats, and evaluate pharmacokinetic characteristics thereof.\nAn appropriate amount of sample was weighed, and ultrasonically prepared into a 0.3 mg/mL suspension for the gavage administration group; and was prepared into a 0.2 mg/mL suspension for the intravenous administration group as per a formula of 5% DMSO+10% Solutol+85% (20% SBE-β-CD).\nSD rats were fasted overnight, and then administered by gavage at a dosage of 3 mg/kg and by intravenous injection at a dosage of 1 mg/kg, respectively.\n0.1 mL of blood was collected before administration and at 5 min, 15 min, 30 min, 1 h, 2 h, 4 h, 8 h, and 24 h after administration, transferred into heparinized tubes, and centrifuged at 3500 rpm for 10 min to separate the plasma, which was stored at −20° C. 4 h after administration, the animals were resumed for feeding/free access to water.\nContents of the test compounds in plasma of the rats after gavage administration were determined by LC/MS/MS."}, "[2]": {"target": "T1, human NK-3 receptor (Homo sapiens, UniProt P29371)", "T1 construct": "expressed in transfected cells; host or cells: HEK293", "T1 sequence (P29371 1-465)": "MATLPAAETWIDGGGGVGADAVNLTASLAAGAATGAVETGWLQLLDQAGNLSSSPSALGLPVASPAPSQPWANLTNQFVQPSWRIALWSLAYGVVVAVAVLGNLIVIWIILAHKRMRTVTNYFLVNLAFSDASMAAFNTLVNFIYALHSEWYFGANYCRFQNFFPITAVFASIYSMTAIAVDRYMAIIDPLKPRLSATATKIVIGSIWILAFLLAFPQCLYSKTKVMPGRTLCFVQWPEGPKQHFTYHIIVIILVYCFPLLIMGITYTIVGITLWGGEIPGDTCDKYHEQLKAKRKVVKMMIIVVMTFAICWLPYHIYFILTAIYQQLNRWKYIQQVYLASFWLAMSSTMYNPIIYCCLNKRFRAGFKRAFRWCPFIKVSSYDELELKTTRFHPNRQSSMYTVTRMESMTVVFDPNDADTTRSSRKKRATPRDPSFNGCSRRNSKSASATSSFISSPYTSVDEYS", "assay": "Antagonistic activity on human NK-3 receptor in human NK-3R/HEK293 stably transfected cells (Fluo-4, FLIPR, Neurokinin B as agonist)", "format": "cell-based", "conditions": "human NK-3R/HEK293 cells", "how_it_was_run": "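HEK293 cells stably expressing human NK-3R loaded with Component A dye 2 h at 37° C, then preincubated with serially 3-fold diluted compound 30 min at 25° C. Neurokinin B (2.5 nM, 6× stock) added on FLIPR Tetra to read calcium signal. IC50 from inhibition curves versus reference agonist.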"}, "[3]": {"tested_on": "MDR1", "assay": "In vitro brain model test: MDR1-MDCKII bidirectional permeability", "format": "in vitro ADME", "conditions": "dog, MDCK-MDR1, pH 7.4, 2 μM, 2.5 h, pH7.4", "procedure": "The test product was diluted from dimethyl sulfoxide stock solution to a concentration of 2 μM (dimethyl sulfoxide <1%) with a transfer buffer (HBSS containing 10 mM Hepes, pH7.4); and was applied to apical or basolateral cavities of the cell monolayer. Penetration of the test compound from the direction A to the direction B or from the direction B to the direction A was determined in duplicate. Digoxin was detected at 10 μM in the direction of A-B, or detected in the direction of B-A, while Nadolol and Metoprolol were detected at 2 μM in the direction of A-B in duplicate. The plate was cultivated in a CO2 incubator at 37±1° C. for 2.5 h with 5% CO2 at a saturated humidity without shaking. Further, the efflux rate of each compound was also determined. According to the peak area ratio of analyte/IS, the test product and the control product were quantitatively analyzed by LC-MS/MS.\nAfter the transfer test, the monolayer integrity of cells was determined by a lucifer yellow exclusion assay. Buffer was removed from apical and basolateral cavities, and then 75 μL of 100 μM lucifer yellow and 250 μL of transfer buffer were added into the apical and basolateral cavities, respectively. The culture dish was cultivated at 37° C., 5% CO2, and saturated humidity for 30 min without shaking. After incubation for 30 min, 20 μL of lucifer yellow sample was extracted from the top, and then 60 μL of the transfer buffer was added. Then, 80 μL of lucifer yellow sample was extracted basolaterally. Relative Fluorescence Units (RFU) of lucifer yellow were measured at 425/528 nm (excitation/emission) with an Envision plate reader."}, "[4]": {"assay": "Pharmacokinetic test in rats: plasma and brain concentration after gavage 3 mg/kg", "format": "in vivo", "conditions": "rat, oral, SD rats", "procedure": "Test Example 4: Pharmacokinetic Test of Compounds of the Present Invention in Rats\nas §1\nAn appropriate amount of sample was weighed, and ultrasonically prepared into a 0.3 mg/mL suspension for the gavage administration group as per a formula of 5% DMSO+10% Solutol+85% (20% SBE-β-CD).\nSD rats were fasted overnight, and then administered by gavage at a dosage of 3 mg/kg respectively.\nBlood and cerebrospinal fluid were collected at designed time points after administration, and then brain tissue was collected after cardiac perfusion with normal saline. Plasma was collected by centrifugation within 1 h, and then immediately transferred onto wet ice. Centrifugation conditions: 4-10° C., 8,000 rpm, 6 min. 4 h after administration, the animals were resumed for feeding/free access to water.\nThe concentrations of corresponding compounds in plasma and cerebrospinal fluid were detected by LC-MS/MS."}},
  "note": "Read-outs that look alike come from different tables or passages of the source.",
  "data": [
    {"compound": "Cc1nsc(-c2nnc3n2CCN(C(=O)c2ccc(F)cc2)[C@@H]3C)n1", "note": "[Fezolinetant, reference compound]", "values": [
      {"measurement": "Cmax", "setting": "[1]; po, gavage 3 mg/kg, read-out: Blood concentration Cmax", "value": 2180, "unit": "ng/mL"},
      {"measurement": "AUC", "setting": "[1]; po, gavage 3 mg/kg", "value": 10100, "unit": "ng·h/mL"},
      {"measurement": "half-life", "setting": "[1]; po, gavage 3 mg/kg", "value": 193, "unit": "min"},
      {"measurement": "AUC", "setting": "[1]; intravenous injection 1 mg/kg", "value": 2670, "unit": "ng·h/mL"},
      {"measurement": "half-life", "setting": "[1]; intravenous injection 1 mg/kg", "value": 116, "unit": "min"},
      {"measurement": "IC50", "setting": "[2]", "value": 734, "unit": "nM"},
      {"measurement": "Papp A→B at 2.5 h, 2 μM", "setting": "[3]", "value": 26.2, "unit": "×10⁻⁶ cm/s"},
      {"measurement": "Papp B→A at 2.5 h, 2 μM", "setting": "[3]", "value": 28.4, "unit": "×10⁻⁶ cm/s"},
      {"measurement": "concentration at 1 h", "setting": "[4]; brain, sampling time 1 h, read-out: Brain conc.", "value": "512 ± 88.4", "unit": "ng/mL"},
      {"measurement": "concentration at 2 h", "setting": "[4]; brain, sampling time 2 h, read-out: Brain conc.", "value": "585 ± 117", "unit": "ng/mL"},
      {"measurement": "concentration at 4 h", "setting": "[4]; brain, sampling time 4 h, read-out: Brain conc.", "value": "419 ± 37.1", "unit": "ng/mL"},
      {"measurement": "Kp at 1 h", "setting": "[4]; brain/plasma, sampling time 1 h, read-out: B/P ratio", "value": 0.38},
      {"measurement": "Kp at 2 h", "setting": "[4]; brain/plasma, sampling time 2 h, read-out: B/P ratio", "value": 0.46},
      {"measurement": "Kp at 4 h", "setting": "[4]; brain/plasma, sampling time 4 h, read-out: B/P ratio", "value": 0.44},
      {"measurement": "concentration at 1 h", "setting": "[4]; plasma, sampling time 1 h, read-out: Plasma conc.", "value": "1330 ± 177", "unit": "ng/mL"},
      {"measurement": "concentration at 2 h", "setting": "[4]; plasma, sampling time 2 h, read-out: Plasma conc.", "value": "1280 ± 110", "unit": "ng/mL"},
      {"measurement": "concentration at 4 h", "setting": "[4]; plasma, sampling time 4 h, read-out: Plasma conc.", "value": "961 ± 21", "unit": "ng/mL"}
    ]}
  ]
}
